Experimental data: patent US5856115A, “Assay for identification therapeutic agents” (priority 1994, dated 1999)

How the values were obtained:
[1] = tested on: lyso-PA acyl transferase (LPAAT); experiment: Inhibition of LPAAT shown by the invention assay; assay type: cell-based, human
Method: (§1) This example also illustrates the method of the invention.
(§2) Human glomerular mesangial cells were incubated with IL-1 for various time periods of 5-60 seconds and the cells were fixed in ice-cold methanol, and the lipids extracted using chloroform:methanol 2:1 (v/v). It is very important that the fixing/extraction process be conducted quickly so that the decomposition of unstable intermediates is halted.
(§3) The extracts were subjected to HPLC on a Rainin mu-Porasil column with a 3:4 hexane:propanol organic carrier and a 1-10% water gradient during the first 10 minutes of separation. The relative concentration of each lipid species is determined using absorption at 206 nm (A206), which follows unsaturated acyl content of lipid species. […] The absolute mass of each lipid species is determined by isolation of the lipid using a fraction collector, repurification on the HPLC column. Determination of phospholipid phosphorus is as nmoles/mg cellular protein. Protein concentration is determined using the Bradford technique.
(§4) Thus, the lyso PA that accumulates contains high levels of unsaturated fatty acids. Pentoxifylline in a dose range greater than 500 μM results in inhibition both of phosphatidate phosphohydrolase and of lyso PA acyl transferase.

[2] = tested on: phosphatidic acid phosphohydrolase (PAPH); experiment: Inhibition of PAPH shown by the invention assay; assay type: cell-based, human
Method: as §1, §2, §3, §4

[3] = tested on: NIH3T3 cell line (D5C3) transformed with temperature-sensitive v-abl; experiment: Blocking transformed phenotype of D5C3 cells; assay type: cell-based, murine
Method: An NIH3T3 cell line ([MUT]) provides target cells which were transformed by an activated oncogene. The cells were transformed with a temperature-sensitive v-abl mutant gene. This mutant gene encodes a temperature-sensitive v-abl protein that produces a non-oncogenic product at a non-permissive temperature due to a lack of tyrosine phosphorylation. The cells were incubated at the permissive temperature (33° C.) for 5 days after passage with and without pentoxifylline (1 mM).

[4] = tested on: SV40 T-antigen-transformed human kidney mesangial cells; experiment: Tritiated thymidine uptake of transformed mesangial cells with rhIL-1 or TNFα; assay type: cell-based
Method: SV40 T-antigen-transformed human kidney mesangial cells were cultured under standard conditions with rhIL-1 or with TNFα with and without pentoxifylline (PTX). Transformed mesangial cells grow independently of added growth factors, but IL-1 and TNFα are the normal proliferative signals for mesangial cells. As was shown in Example 1, when IL-1 is added to kidney mesangial cells, within 30 seconds LPAAT and PAPH are activated; the effect of both of these enzymes is inhibited by pentoxifylline at 1 mM. In this experiment, the growth of the treated cells was measured using tritiated thymidine uptake.

[5] = tested on: NIH3T3 murine fibroblast cells transformed with a mutated K-ras; experiment: Growth and soft agar colonies of K-ras transformed NIH3T3 cells in vitro; assay type: cell-based; settings: concentrations at or greater than 0.5 mM
Method: Additionally, NIH3T3 murine fibroblast cells transformed with a mutated K-ras (codon 12 Gly-Val) were tested in vitro and in nude mice.

[6] = tested on: TNFα transcripts in U937 cells; experiment: Northern blot of TNFα transcripts in LPS-induced U937 cells; assay type: cell-based; settings: 1 mM PTX, LPS three hours
[7] = tested on: IL-8 mRNA in U937 and THP1; experiment: Northern blot of IL-8 mRNA in monocytic cell lines induced by lipopolysaccharide or GM-CSF; assay type: cell-based
Method: The murine fibrosarcoma cell line, L929, was also tested as an indicator for assays of TNF cytotoxicity. Cell growth was assayed by crystal violet staining using optical density as a measure of growth. […] Finally, two monocytic cell lines, U937 and THP1, were used to test the effect of pentoxifylline on the […] of the cytokine IL-8. The cell lines in culture were induced to upregulate IL-8 production by lipopolysaccharide or GM-CSF.

CD3-positive lymphocytes = experiment: Proliferation and transcripts of anti-CD3 stimulated lymphocytes; assay type: cell-based
Method: In these experiments, freshly isolated, CD2-positive cells were stimulated by a solid-phase monoclonal antibody to acquire a CD3 phenotype, and then PTX was added. […] The block in proliferation could not be overcome by addition of either tumor necrosis factor (FIGS. 20 and 21) or IL-1 (FIG. 21). […] The cytokines and PTX were added at culture inception and the cells were harvested after 5 days.

T cell proliferation = settings: Singer et al., cited from earlier work
[8] = tested on: IL-6 transcripts in bone marrow stromal cells; experiment: Northern blot of IL-6 transcripts in bone marrow stromal cells; assay type: cell-based; settings: three-hour exposure, increasing concentrations
[9] = tested on: Steel factor transcripts in marrow stromal cell lines; experiment: Northern blot of Steel factor transcripts in marrow stromal cell lines; assay type: cell-based; settings: three-hour incubation, passaged or cloned (CDCL) lines
[10] = tested on: Human glomerular mesangial cells stimulated with IL-1; experiment: Invention assay: HPLC of lipids (PA, DAG) from mesangial cells stimulated with IL-1; assay type: cell-based
Method: The compounds of Formula I are shown to modulate the effects of primary stimuli which elevate levels of the relevant subspecies of PA and DAG using the assay system of the invention. In general for the assay, the cells to be tested are first incubated with the primary stimulating agent for various time periods and fixed in ice-cold methanol. The lipids are extracted using, for example, chloroform:methanol 2:1 (v/v), and the extracts are then subjected to HPLC as described by Bursten and Harris, Biochemistry (1991). In this method, a Rainin mu-Porasil column is used with a 3:4 hexane:propanol organic carrier and a 1-10% water gradient during the first 10 minutes of separation. Detection of the peaks in the elution pattern is by absorption in the range of ultraviolet which detects isolated double bonds. Thus, the relevant peaks of unsaturated PA and DAG are shown in the elution pattern. It is important to note that the assay method permits discrimination between various forms of PA and DAG so that those relevant to the pathway affected by the compounds of Formula I can be measured directly. Confirmation of the nature of the acyl substituents of these components is accomplished using fast-atom bombardment mass spectroscopy. Thus, the relevant unsaturated (non-arachidonic) PA and DAG subspecies may be detected. The time periods employed are 5-60 seconds after stimulation with the primary stimulus, such as a cytokine. This technique permits assessment of the levels of various lipid components as a function of time.
To test the effect of the compounds of the invention, the candidate compound is included in the initial incubation at various concentrations. Fixing, extraction and HPLC are conducted as above. The effect of the candidate compound is then reflected in a lowering of the relevant PA and DAG levels as compared to the cells without candidate in the control as illustrated hereinbelow.
as §2, §3
After contacting HMC with 10^-11 M interleukin-1, a marked redistribution of phospholipids and metabolites is apparent within 5 seconds (FIG. 2), including a significant increase in PA and DAG. FIGS. 3 and 4 show the HPLC after stimulation with IL-1 for 15 seconds and 60 seconds, respectively. PA has been converted into DAG by action of phosphatidate phosphohydrolase at 15 seconds; but the PA peak reappears after 60 seconds.
The HMC were also reacted with 10^-11 M IL-1 in the presence of various concentrations of pentoxifylline. […] A large peak representing pentoxifylline is present.

[11] = tested on: human leukemic cell line (Mo7e); experiment: GM-CSF stimulated colony formation of Mo7e cells; assay type: cell-based; settings: semisolid medium, colonies counted after 10 days
Method: The human leukemic cell line (Mo7e) is dependent on added granulocyte-macrophage colony-stimulating factor (GM-CSF) for growth. Mo7e cells were cultured in semisolid medium with and without pentoxifylline (PTX) and rhGM-CSF. Colonies were counted 10 days after culture initiation under an inverted microscope. […] PTX thus prevents the up-regulation of activation-associated genes which inhibit proliferation.

[12] = tested on: patients undergoing allogeneic bone marrow transplant; experiment: Preliminary study in allogeneic bone marrow transplant patients; assay type: in vivo, human; settings: first 30 days post-transplant
Method: A preliminary study was conducted on patients undergoing allogeneic bone marrow transplant for multiple myeloma, for lymphoid malignancies, or for advanced stage CML or AML. Prednisone is often administered as an immunosuppressant in all experimental groups. In the study, these patients received the drugs for a minimum of 3 days to a maximum of 7 days prior to starting their preparative regimen while in the outpatient department according to the following regimen:
PTX: 600 mg p.o. qid at 9 am, 1 pm, 5 pm and 9 pm;
CIPRO: 500 mg p.o.b.i.d.; and
PD: 0.5 mg/kg b.i.d. (total 1 mg/kg/day changed to methylprednisolone at an equivalent dose starting on day-1).
For the duration of therapy, the patients are continued on the study drugs as follows:
PTX: until day +20 post-transplant then tapered 600 mg/day until off;
CIPRO: until day 30 post-transplant or day of discharge if sooner than day 30; and
PD: tapered starting on day 0 over 14 days until off.
All patients in these studies received PD and cyclosporin as GVHD prophylaxis.

[13] = tested on: recipients of marrow from unrelated donors; experiment: Unrelated donor trial; assay type: in vivo, human
Source text: (§5) They are given steroids to reduce inflammation. […] In this group of patients, GVHD approaches 90%.
Again, the general results were improved as compared to either standard therapy or GM-CSF.

[14] = tested on: recipients of matched allogeneic donor marrow; experiment: Matched allogeneic donor trial; assay type: in vivo, human
Source text: as §5
Again, engraftment was improved, toxicity diminished and survival improved as compared either to standard treatment or to treatment with GM-CSF.

[15] = day 0-28, median (mean ± standard deviation)
[16] = days 0-28, median (mean ± standard deviation)
[17] = median (mean ± standard deviation)

Q: With `C[C@@H](O)CCCCn1c(=O)c2c(ncn2C)n(C)c1=O` [CT1501 R] as the molecule, how does the “block of lyso-PA AT” value [1] read?
A: blocks

Q: What about the “block of Ptd Phydr” value [2] of the same molecule?
A: blocks

Q: For `O=C(O)c1cn(C2CC2)c2cc(N3CCNCC3)c(F)cc2c1=O` [Ciprofloxacin], which “inhibition of the transformed phenotype” value ([3]; ciprofloxacin 50 μg/ml, pentoxifylline 1 mM) is on record?
A: significant effect

Q: Which “growth stimulated by IL-1” value ([4]; FIG. 13A) does the source give for `CC(=O)CCCCn1c(=O)c2c(ncn2C)n(C)c1=O` [Pentoxifylline] here?
A: arrested growth

Q: What about the “proliferative effect of TNF” value ([4]; FIG. 13B) of the same molecule?
A: enhances

Q: And the appearance of cells ([3]; 1 mM, 33° C., 5 days)?
A: predominantly non-transformed, fibroblastic appearance

Q: And the “LPAAT activated by IL-1” value ([1]; 1 mM)?
A: inhibited

Q: And the “inhibition of lyso PA acyl transferase” value ([1]; dose range greater than 500 μM)?
A: inhibition

Q: And the “inhibitory effect on LPAAT” value ([1]; relative to 0.5 mM)?
A: evident only at higher concentrations

Q: And the “PAPH activated by IL-1” value ([2]; 1 mM)?
A: inhibited

Q: What about the “inhibition of phosphatidate phosphohydrolase” value ([2]; dose range greater than 500 μM) of the same molecule?
A: inhibition

Q: And the growth ([5]; in vitro)?
A: inhibition of growth

Q: What about the anchorage-independent growth ([5]; soft agar) of the same molecule?
A: suppression

Q: What about the “TNF RNA obtained in response to LPS stimulation” value [6] of the same molecule?
A: undetectable level

Q: What about the “synthesis of IL-8 (mRNA)” value [7] of the same molecule?
A: did not inhibit

Q: What about the thymidine uptake (CD3-positive lymphocytes; CD2-positive T-cells, monoclonal antibody 64.1, 5 days, FIG. 21) of the same molecule?
A: diminished

Q: What about the TNF transcripts (CD3-positive lymphocytes; Northern blot, FIG. 19A) of the same molecule?
A: suppression

Q: What about the IL-2 receptor transcripts (CD3-positive lymphocytes; Northern blot, FIG. 19C) of the same molecule?
A: suppression

Q: What about the “expression of cell surface antigens (HLA-DR, CD71, CD25, CD69)” value (T cell proliferation; MLR-stimulated lymphocytes) of the same molecule?
A: decreased

Q: What about the “blocking a proliferative response” value (T cell proliferation; PTX added after triggering lymphocytes in a mixed lymphocyte culture) of the same molecule?
A: still effective

Q: And the “production of IL-6 transcripts” value [8]?
A: increased production

Q: And the “levels of Steel factor transcripts” value [9]?
A: increases

Q: What about the “elevation of PA and DAG by IL-1” value ([10]; 1 mM, all time points (15-60 seconds)) of the same molecule?
A: abolishes

Q: What about the “cyclical formation of PA, and conversion of PA to DAG” value ([10]; 10^-11 M IL-1, 100 μM pentoxifylline, 15- and 60-second points) of the same molecule?
A: no change

Q: And the “conversion of PA to DAG” value ([10]; 10^-11 M IL-1, 500 μM pentoxifylline, 15 second time point)?
A: slight attenuation

Q: And the “elevation in levels of unsaturated, non-arachidonic PA and of the DAG derived from it” value ([10]; IL-1 stimulation, concentrations greater than 500 μM)?
A: obviate

Q: What about the “GM-CSF-stimulated growth of colonies” value [11] of the same molecule?
A: enhanced

Q: For `Cc1nc2sccn2c(=O)c1CCN1CCC(=C(c2ccccc2)c2ccc(F)cc2)CC1` [R 50922], which “HPLC pattern (reappearance of PA after 60 seconds)” value ([10]; IL-1 stimulation) is on record?
A: does not alter

Q: Which results are given for “GM-CSF: granulocyte-macrophage colony-stimulating factor”?
A: platelet transfusion requirements [12]: 87±69 units of platelets; red blood cell requirements [12]: 24.7±24 units of RBCs; Max Creat [13, 15]: 1.1 (1.4 ± 1.2) mg/dL; Units platelets transfused [13, 15]: 92.0 (90 ± 42) units; Bili ≥5.0 mg/dL (patients) ([13]; days 0-28): 46%; Creat ≥2.0 mg/dL (patients) ([13]; days 0-28): 17%; Infection 0-28 ([13]; days 0-28): 7%; Max Bili [13, 16]: 5.5 (7 ± 7) mg/dL; ANC ≤100 (days below 100 cells/uL) [13, 17]: 12 (12 ± 7) days; ANC ≥100 [13, 17]: 18.5 (18 ± 6) day; ANC ≥500 [13, 17]: 22.5 (23 ± 4) day; ANC ≥1,000 [13, 17]: 26.0 (26 ± 5) day; Day initial discharge [13, 17]: 37.0 (37 ± 14) day; Last plt day [13, 17]: 24.5 (26 ± 6) day; Day 100 Survival [14]: 69%; Max Creat [14, 15]: 1.5 (1.8 ± 1.4) mg/dL; Units platelets transfused [14, 15]: 74.0 (87 ± 74) units; Bili ≥5.0 mg/dL (patients) ([14]; days 0-28): 44%; Creat ≥2.0 mg/dL (patients) ([14]; days 0-28): 22%; Infection 0-28 (patients with positive bacterial blood cultures) ([14]; days 0-28): 14%; Max Bili [14, 16]: 5.0 (8 ± 10) mg/dL; ANC ≤100 (days below 100 cells/uL) [14, 17]: 5.0 (6 ± 4) days; ANC ≥100 (day on which ANC ≥100 cells/uL on two consecutive days) [14, 17]: 9.0 (8 ± 6) day; ANC ≥1,000 (day on which ANC ≥1,000 cells/uL on two consecutive days) [14, 17]: 14.0 (16 ± 9) day; Day discharge [14, 17]: 24.0 (26 ± 13) day; Last RBC day (first day RBC count ≥30% for 7 consecutive days untransfused) [14, 17]: 59.0 (63 ± 39) day; Last plt day [14, 17]: 23.0 (17 ± 11) day
